Holding throughout (format): cell-based
Assay [1] concerns the target Norepinephrine transporter (NET) (Homo sapiens (Human), UniProt P23975). As to the kind of experiment: Norepinephrine transporter (NET) uptake inhibition, [3H]-Norepinephrine uptake in HEK cells. To be noted: HEK cells expressing recombinant NET; [3H]-Norepinephrine 20 nM. On the procedure:
(§1) Norepinephrine transporter (NET) Uptake Inhibition: Compound activity was assessed using a convenient in vitro assay. Briefly, HEK cells expressing recombinant NET were plated at 50,000 cells/well on a 96 well plate pre-coated with Matrigel one day prior to the experiment. Culture medium (DMEM/FBS) was removed and 30 μl of assay buffer (Tris-HCl 50 mM, EDTA 4 mM, BDA 0.1%) with the desired concentration of test compound was added. The plate was incubated at 37° C. for 15 minutes. Assay buffer (30 μl) containing the same concentration of compound diluted in [3H]-Norepinephrine uptake buffer (final concentration 20 nM) was added to each well and the plate was incubated at 37° C. for 5 minutes. The reaction mixture was removed, and the cells were washed with 100 μl ice-cold assay buffer twice. Lysis buffer (50 μl) was added to the cells followed by a 5 minute incubation with gentle shaking at room temperature. The lysate was transferred to a 96 well isoplate. Optiphase supermix (100 μl) was added to each well with complete mixing. Radioactivity was counted with Microbeta Counter and reported as CPM. Desipramine was used as a control to measure non-specific uptake and for data normalization. Percent inhibition of [3H]-Norepinephrine uptake calculations: 100×(1−(CPMtest sample−CPMnon-specific uptake)/(CPMMAX−CPMMIN)).

Assay [2] deals with Dopamine transporter (DAT) (Homo sapiens (Human), UniProt Q01959). As to the kind of experiment: Dopamine transporter (DAT) uptake inhibition, [3H]-dopamine uptake in HEK cells. The settings on record: HEK cells expressing recombinant DAT; [3H]-dopamine 20 nM. On the procedure:
as §1, with “Dopamine transporter (DAT)” for “Norepinephrine transporter (NET)”, “Dopamine transporter (DAT) Uptake Inhibition:” for “Norepinephrine transporter (NET) Uptake Inhibition:”, “expressing recombinant DAT were plated” for “expressing recombinant NET were plated”, “diluted in [3H]-Dihydroxyphenylethylamine (dopamine) uptake buffer” for “diluted in [3H]-Norepinephrine uptake buffer”, “as CPM. Nomifensine was used” for “as CPM. Desipramine was used”, “inhibition of [3H]-Dopamine uptake calculations:” for “inhibition of [3H]-Norepinephrine uptake calculations:”

The target in assay [3] is Serotonin transporter (SERT) (Homo sapiens (Human), UniProt P31645). As to the kind of experiment: Serotonin transporter (SERT) uptake inhibition, [3H]-Serotonin uptake in HEK cells. To be noted: HEK cells expressing recombinant SERT, [3H]-Serotonin 10 nM; for inhibition at 10 µM / inhibition at 100 µM: HEK293; for inhibition at 10 µM: 10 μM test compound; for inhibition at 100 µM: 100 μM test compound. On the procedure:
Serotonin transporter (SERT) Uptake Inhibition: Compound activity was assessed using an in vitro assay. Briefly, HEK cells expressing recombinant SERT were plated at 50,000 cells/well on a 96 well plate pre-coated with Matrigel one day prior to the experiment. Culture medium (DMEM/FBS) was removed from each well, and 30 μl of assay buffer (Tris-HCl 50 mM, EDTA 4 mM, BDA 0.1%) with the desired concentration of test compound was added. The plate was incubated at 37° C. for 15 minutes. Assay buffer (30 μl) containing the same concentration of compound diluted in [3H]-Serotonin uptake buffer (final concentration 10 nM) was added to each well and the plate was incubated at 37° C. for 5 minutes. The reaction mixture was removed, and the cells were washed (2×) with 100 μl ice-cold assay buffer. Lysis buffer (50 μl) was added to the cells followed by a 5 minute incubation with gentle shaking at room temperature. The lysate was transferred to a 96 well isoplate. Optiphase supermix (100 μl) was added to each well and was thoroughly mixed. Radioactivity was counted with Microbeta Counter and reported as counts per minute (CPM). Fluoxetine was used as a control to measure non-specific uptake and for data normalization. Percent inhibition of [3H]-Serotonin uptake is based on the calculation: 100×(1−(CPMtest sample−CPMnon-specific uptake)/(CPMMAX−CPMMIN)).

Broadly, the IC50 is the concentration needed to halve the response being measured. For orientation: inhibition means the relative decrease from the control value, in per cent.

As for `CC(N)Cc1ccc2occ(F)c2c1` (stereo not drawn) [Compound 1, 1-(3-fluorobenzofuran-5-yl)propan-2-amine], the IC50 in assay [1] is 4.73 µM. Besides, the 50% inhibitory concentration (IC50) in assay [2] worked out at 15.6 µM. Moreover, in assay [3], the inhibition at 10 µM worked out at 72.7%, the inhibition at 100 µM is 97.9% and the IC50 is 6.75 µM.
`CNC(C)Cc1ccc2c(c1)OCO2` (stereo not drawn) [MDMA, 3,4-Methylenedioxymethamphetamine, reference compound]: the half-inhibitory concentration (IC50) in assay [1] was 1.42 µM. In addition, the half-maximal inhibitory concentration (IC50) in assay [2] came to 5.25 µM. Further, in assay [3], the inhibition at 10 µM was found to be 53.3%, the inhibition at 100 µM stood at 98% and the 50% inhibitory concentration (IC50) was found to be 3.35 µM.
The like results for `CNC(C)Cc1ccc2occ(F)c2c1` (stereo not drawn) [Compound 2, 1-(3-fluorobenzofuran-5-yl)-N-methylpropan-2-amine] were, in that order, 5.02 µM, 9.59 µM, 64.7%, 99% and 5.72 µM.

For the origin of these results see US20240425470A1, “S[…] AMINE MODULATORS OF MONOAMINERGIC TRANSPORTERS” (ATAI Life Sciences AG, priority 2023, published 2024).
